This is an account of results in EP0520200B1, “Imidazole compounds, their preparation and use” (NEUROSEARCH A/S, priority 1991, dated 1992).

The subject of assay [1] is voltage operated calcium channels. The assay can be described thus: Depolarization (potassium) induced 45Ca uptake into synaptosomes. It is filed as biochemical, male Wistar rat. The note with it: concentration inhibiting 50% of potassium stimulated uptake of 45Ca; rat cerebral cortex synaptosomes; corrected for basal uptake in non-depolarized samples. How it is done:
A crude synaptosome preparation contains small vesicles surrounded by neuronal membranes, and it is possible to study an opening of the voltage operated calcium channels in such a preparation.
In the below described test influx of ^45Ca into synaptosomes is studied under depolarized conditions. The effect of test substances on the depolarization induced calcium uptake can thus be studied.
The cerebral cortex from a male Wistar rat is homogenized in 20 ml ice cold 0.32M saccharose. In the following steps the temperature is kept at 0°C to 4°C. The homogenate is centrifuged at 1,000 x g for 10 minutes and the supernatant recentrifuged for 20 minutes at 18,000 x g. The obtained pellet is resuspended in 0.32M saccharose (10 ml per g of original tissue).
Aliquots of 0.05 ml of the hereby obtained synaptosome suspension are added to glass tubes containing 0.625 ml of a NaCl buffer (136 mM Nacl, 4 Mm KCl, 0.35 mM CaCl2, 1.2 mM MgCl2, 20 mM Tris HCl, 12 mM glucose, pH 7.4) as well as 0.025 ml of different test substances in 48% ethanol. These tubes are pre-incubated for 30 minutes on ice and thereafter for 6 minutes at 37°C.
^45Ca uptake is initiated by addition to above glass-tubes of 0.4 ml ^45CaCl2 (specific activity: 29-39 Ci/g; […] per tube). For depolarized samples the 0.4 ml ^45CaCl2 contain KCl (145 mM) and for non-depolarized NaCl (145 mM). The samples are incubated for 15 seconds.
The ^45Ca uptake is stopped by filtering through glass fibre filters, which are subsequently washed 3 times with an ice cold solution of 145 mM KCl, 7 mM EGTA and 20 mM Tris HCl, pH 7.4 (5.0 ml). The radioactivity on the filters are measured by liquid scintillation spectrometry. Experiments are performed in duplicate.
Above test substances are dissolved in for example 10 ml 48% ethanol at a concentration of 0.44 mg/ml. Dilutions are made in ethanol. Test substances are tested at concentrations of 0.1, 0.3, 1, 3, 10 .... µg/ml.
The test value is given as IC50, that is the concentration in µM of the test substances, which inhibit 50% of the potassium stimulated uptake of ^45Ca. […]

The subject of assay [2] is hypermotility in mice. The assay is described as follows: Hypermotility in mice induced by amphetamine or cocaine. Type of assay: in vivo. Particulars: result in words. From the text: This is in full accordance with the influence of N-type calcium channel blockers on transmitter release in the central nervous system. Therefore the compounds of the invention are useful as anti-psychotics.

Structures are written as SMILES.

As for `Nc1nc2cc(F)ccc2n1-c1cccc(N2CCCC2)c1` [1-(5-(1-pyrrolidinyl)-phenyl)-2-amino-5-fluoro-benzimidazole], in assay [1], the IC50 (as a rule, the concentration at which inhibition is half-maximal) worked out at 2 µM.

As for `COc1ccc(OC)c(-n2c(N)nc3cc(C(F)(F)F)ccc32)c1` [1-(2,5-dimethoxyphenyl)-2-amino-5-trifluoromethyl-benzimidazole], the IC50 in assay [1] stood at 0.7 µM.

In the case of `Nc1nc2cc(C(F)(F)F)ccc2n1-c1cc(Cl)ccc1O` [1-(2-hydroxy-5-chlorophenyl)-5-trifluoromethyl-2-amino-benzimidazole], the IC50 in assay [1] came out at 2 µM.

In the case of `Nc1nc2ccccc2n1-c1cc(-c2ccccc2)ccc1O` [1-(2-hydroxy-5-phenyl-phenyl)-2-aminobenzimidazole], the antagonism of hypermotility result in assay [2] was “potently antagonize”.
